Laboratory results: patent US20250221979A1, “NOVEL HETEROCYCLIC COMPOUND” (SHOUYAO HOLDINGS (BEIJING) CO., LTD., priority 2022, published 2025)

Columns and labels:
HCT116 MTAP−/− cells = assay: Inhibition of proliferation of HCT116 MTAP-/- cells (Cell-Titer Glo, 7 days); assay type: cell-based; conditions: Homo sapiens, HCT-116, 168 h (7 days) incubation, read-out: HCT116 MTAP−/− antiproliferative activity IC50
Experimental: The MTAP deficient human colorectal cancer cell line HCT116 MTAP−/− was constructed using CRJSPR Cas9 technology and cultured in DMEM medium supplemented with 10% fetal bovine serum (FBS, purchased from Gibco) and 1% penicillin/streptomycin (P/S, purchased from Thermo Fisher Scientific) at 37° C. with 5% CO2. HCT116 MTAP−/− cells were plated in 96 well plates (#3917, purchased from CORNING) at a concentration of 200 cells/195 μL/well. After 24 h, the compounds were diluted in a 3-fold gradient starting at 10 mM with 100% DMSO (for a total of 10 concentrations), then 4 μL of each concentration was added to 96 μL of serum-free DMEM medium for dilution. 5 μL of diluted compound at each concentration was added to the plated cell suspension and the compound was incubated with the cells for 168 h (7 days) in a cell culture incubator. The medium was then removed and 25 μL of Cell-Titer Glo® (G7570, purchased from Promega) reagent was added. Chemiluminescence values were read on a BMG and data were processed using GraphPad Prism software to calculate IC50 values for inhibition of cell proliferation by the compounds.

human MAT2A enzyme = human MAT2A enzyme (Homo sapiens (Human), UniProt P31153); assay: In vitro enzymatic inhibition activity assay on MAT2A (PiColorLock phosphate detection); assay type: biochemical; conditions: purified human MAT2A 10 nM, ATP 50 μM, L-methionine 100 μM, 6 h at 23° C.; read-out: MAT2A inhibitory activity IC50
Chain of human MAT2A enzyme (P31153 whole entry): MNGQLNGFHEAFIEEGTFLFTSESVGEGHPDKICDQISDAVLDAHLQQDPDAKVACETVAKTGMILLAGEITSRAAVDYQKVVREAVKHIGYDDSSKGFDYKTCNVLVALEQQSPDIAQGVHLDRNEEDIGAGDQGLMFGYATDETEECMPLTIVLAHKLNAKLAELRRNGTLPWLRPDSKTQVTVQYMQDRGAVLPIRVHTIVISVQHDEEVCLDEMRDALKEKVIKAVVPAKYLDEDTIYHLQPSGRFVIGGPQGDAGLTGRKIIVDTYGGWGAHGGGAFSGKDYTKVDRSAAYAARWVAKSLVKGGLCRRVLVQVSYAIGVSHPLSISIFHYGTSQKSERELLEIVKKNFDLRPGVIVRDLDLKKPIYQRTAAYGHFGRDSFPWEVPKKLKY
Summary of the method: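 Purified human MAT2A (10 nM) turned L-methionine (100 μM) and ATP (50 μM) into SAM in Tris-HCl pH 7.5 buffer with MgCl2, KCl and DTT for 6 h at 23 °C. Released phosphate was read colorimetrically at 630 nm. IC50 was fitted from an 8-point, 10-fold dilution series.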

[1] = In vivo pharmacokinetic study in CD-1 mice; conditions: male, mouse, single oral gavage dose of 10 mg/kg, plasma
Experimental: In vivo pharmacokinetic study in CD-1 mice
Twenty-four healthy adult male mice from Beijing Vital River Laboratory Animal Technology Co., Ltd. were used in the study.
CD-1 mice were administered with a single oral gavage dose of 10 mg/kg in a volume of 10 mL/kg at a concentration of 1 mg/mL.
The test article in this project is generally suspended in 0.5% hydroxypropylmethyl cellulose, 0.1% Tween 80 (W/V/V) aqueous solution at the concentration of 1 mg/mL.
Animals dosed by gavage were fasted overnight before the experiment from 16 h before dosing to 4 h after dosing. Blood was collected at 0.25, 0.5, 1, 2, 4, 6, 8, and 24 h after administration successively. The animals were lightly anesthetized with isoflurane. About 0.2 mL of whole blood was collected from the orbital venous plexus using a glass blood collection tube and placed in a sodium heparin anticoagulant tube. The sample was centrifuged at 5200 rpm for 5 min at 4° C. The plasma was transferred to a centrifuge tube and stored at −80° C. until analysis.
Analysis of plasma samples Test compounds and internal standards (warfarin or propranolol) were extracted from mouse plasma using an acetonitrile protein precipitation method and the extracts were analyzed by LC/MS/MS. The measured plasma concentration-time data of individual animals were analyzed using the non-compartmental model of WinNonlin (version 5.2.1, Pharsight) software to obtain the corresponding pharmacokinetic parameters: maximum (peak) plasma drug concentration Cmax; Time to peak Tmax; Half-life T1/2 and area under the plasma concentration-time curve extrapolated to infinite time AUC0-inf.

Row | Compound | IC50 (HCT116 MTAP−/− cells) [nM] | IC50 (human MAT2A enzyme) [nM] | AUC [1] [ng·h/mL] | Cmax [1] [ng/mL] | Tmax [1] [h] | half-life [1] [h]
1 | COC(=O)c1c(N)c2ccc(C(F)(F)F)nc2n(-c2cccc3cnccc23)c1=O [Example 174, methyl 4-amino-1-(isoquinolin-5-yl)-2-oxo-7-(trifluoromethyl)-1,2-dihydro-1,8-naphthyridine-3-carboxylate] | 79 | 5.12 | 24500 | 9540 | 0.5 | 3.08
2 | COC(=O)c1c(N)c2ccc(C(F)(F)F)nc2n(-c2ccc(C)nc2)c1=O [Example 207, methyl 4-amino-1-(6-methylpyridin-3-yl)-2-oxo-7-(trifluoromethyl)-1,2-dihydro-1,8-naphthyridine-3-carboxylate] | 53.2 | 2.17 | – | – | – | –
3 | COC(=O)c1c(N)c2ccc(Br)cc2n(-c2ccc(N)cc2)c1=O [Example 147, methyl 4-amino-1-(4-aminophenyl)-7-bromo-2-oxo-1,2-dihydroquinoline-3-carboxylate] | 81.5 | 0.78 | 24100 | 2320 | 1.67 | 8.44
4 | COC(=O)c1c(N)c2ccc(C(F)(F)F)cc2n(-c2ccc(C(C)O)cc2)c1=O (stereo not shown) [Example 122, methyl 4-amino-1-(4-(1-hydroxyethyl)phenyl)-2-oxo-7-(trifluoromethyl)-1,2-dihydroquinoline-3-carboxylate] | 50 | 2.17 | – | – | – | –

Now those with a lower IC50 (HCT116 MTAP−/− cells), led by results:

Row | IC50 (HCT116 MTAP−/− cells) [nM] | IC50 (human MAT2A enzyme) [nM] | AUC [1] [ng·h/mL] | Cmax [1] [ng/mL] | Tmax [1] [h] | half-life [1] [h] | Compound
5 | 48.5 | 3.57 | 24600 | 4270 | 2.5 | 2.98 | COC(=O)c1c(N)c2ccc(I)cc2n(-c2cccc3cnccc23)c1=O [Example 199, methyl 4-amino-7-iodo-1-(isoquinolin-5-yl)-2-oxo-1,2-dihydroquinoline-3-carboxylate]
6 | 25 | 1.26 | – | – | – | – | COC(=O)c1c(N)c2ccc(C(F)(F)F)nc2n(-c2ccc(Cl)nc2)c1=O [Example 203, methyl 4-amino-1-(6-chloropyridin-3-yl)-2-oxo-7-(trifluoromethyl)-1,2-dihydro-1,8-naphthyridine-3-carboxylate]
7 | 32.7 | 2.37 | – | – | – | – | COC(=O)c1c(N)c2ccc(Br)nc2n(-c2ccc(C(C)O)cc2)c1=O (stereo not shown) [Example 266, methyl 4-amino-1-(4-(1-hydroxyethyl)phenyl)-7-bromo-2-oxo-1,2-dihydro-1,8-naphthyridine-3-carboxylate]
8 | 2.1 | 1.44 | – | – | – | – | COC(=O)c1c(N)c2ccc(Br)cc2n(-c2ccc([C@@H](C)O)cc2)c1=O [Example 340, methyl 4-amino-7-bromo-1-(4-(1-(R)-hydroxyethyl)phenyl)-2-oxo-1,2-dihydroquinoline-3-carboxylate]
